We go through two molecules from patent US7521580B1, “Non-cytotoxic synthetic analogues of (1E, 6E)-1, 7-Bis (4-hydroxy-3-methoxyphenyl)-1, 6-heptadiene-3, 5-Dione and therapeutic applications thereof in cystic fibrosis” (Sami Labs Ltd., priority 2008, dated 2009).

Series [1] is described as follows: MTT assay of cellular cytotoxicity. It counts as cell-based. Conditions: Chinese hamster, CHO-CFTR-wt cells, read-out: TC50; for CC50 at 2 h: 2 h incubation; for CC50 at 24 h: 24 h incubation. As for the experimental part:
The cytotoxicity of (1E,6E)-1,7-Bis(3,5-di-tert-butyl-4-hydroxyphenyl)-1,6-heptadiene-3,5-dione (representative of the molecules disclosed in the present invention) was assessed by MTT assay [[3-(4,5-dimethylthiazol-2-yl)-2,5-diphenyl tetrazolium bromide, measuring cellular dehydrogenase activity on CHO-CFTR-wt cell lines. The test is based on the principle that water soluble tetrazolium yellow salt MTT (Sigma®) is converted on purple formazan by mitochondrial dehydrogenase. Cells were grown to confluency in 96-well plates. After incubation with the test compound for 2 or 24 hours, at 37° C., […] of MTT (5 mg/ml) was added. After 4 h of incubation, culture medium was removed and 100 μl of DMSO per well added to solubilise formazan crystals. Optical density (OD) was measured at 570 nm and subtracted to these measured at 630 nm. The amount of purple formazan produced by treated cells is compared with these of untreated control cells (vehicle), dose-response curves were derived using GraphPad Software.

The target in series [2] is T1, wt-CFTR channel (Homo sapiens, UniProt P13569).
T1 construct: expressed in transfected cells; host or cells: CHO-CFTR-wt cells
T1 sequence (P13569 whole entry): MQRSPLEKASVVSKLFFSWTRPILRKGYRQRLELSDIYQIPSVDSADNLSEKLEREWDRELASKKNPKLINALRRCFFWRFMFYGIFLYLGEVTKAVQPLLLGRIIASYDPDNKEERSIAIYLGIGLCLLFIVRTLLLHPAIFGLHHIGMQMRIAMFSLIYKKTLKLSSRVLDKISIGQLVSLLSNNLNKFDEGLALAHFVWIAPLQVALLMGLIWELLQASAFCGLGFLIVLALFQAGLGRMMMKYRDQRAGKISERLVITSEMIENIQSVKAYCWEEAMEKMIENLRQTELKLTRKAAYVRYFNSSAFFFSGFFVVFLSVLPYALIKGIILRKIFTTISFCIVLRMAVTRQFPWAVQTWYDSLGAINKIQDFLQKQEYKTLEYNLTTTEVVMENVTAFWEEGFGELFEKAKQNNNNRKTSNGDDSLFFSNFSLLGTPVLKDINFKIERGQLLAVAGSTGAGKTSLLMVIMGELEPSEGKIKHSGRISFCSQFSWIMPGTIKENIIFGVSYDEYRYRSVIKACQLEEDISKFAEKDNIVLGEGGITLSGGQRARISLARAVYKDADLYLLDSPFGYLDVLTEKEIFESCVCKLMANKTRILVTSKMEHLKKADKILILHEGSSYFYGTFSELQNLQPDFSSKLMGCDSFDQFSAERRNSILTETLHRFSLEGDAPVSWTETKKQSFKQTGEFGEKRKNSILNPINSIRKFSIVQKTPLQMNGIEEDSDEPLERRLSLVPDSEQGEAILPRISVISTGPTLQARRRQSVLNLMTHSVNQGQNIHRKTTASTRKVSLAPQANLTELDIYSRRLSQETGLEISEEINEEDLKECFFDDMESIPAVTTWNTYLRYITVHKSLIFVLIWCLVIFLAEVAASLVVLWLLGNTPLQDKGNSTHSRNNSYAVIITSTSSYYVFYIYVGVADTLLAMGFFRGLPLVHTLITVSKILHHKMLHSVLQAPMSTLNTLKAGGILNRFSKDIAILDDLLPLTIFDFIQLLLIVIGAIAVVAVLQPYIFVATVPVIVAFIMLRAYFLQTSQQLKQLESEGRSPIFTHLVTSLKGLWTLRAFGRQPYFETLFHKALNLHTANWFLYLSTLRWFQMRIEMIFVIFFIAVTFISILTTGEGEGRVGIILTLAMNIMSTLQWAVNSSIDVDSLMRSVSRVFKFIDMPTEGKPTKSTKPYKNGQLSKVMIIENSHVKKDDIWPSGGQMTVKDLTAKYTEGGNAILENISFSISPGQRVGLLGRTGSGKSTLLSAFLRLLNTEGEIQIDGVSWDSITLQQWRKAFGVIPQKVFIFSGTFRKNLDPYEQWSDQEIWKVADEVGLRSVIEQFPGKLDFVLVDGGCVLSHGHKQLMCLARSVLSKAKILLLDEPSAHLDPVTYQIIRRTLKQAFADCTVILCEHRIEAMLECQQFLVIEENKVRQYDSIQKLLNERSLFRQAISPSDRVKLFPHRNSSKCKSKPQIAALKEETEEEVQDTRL
In words: Iodide efflux, wild type CFTR chloride channel activity in CHO-CFTR-wt cells. It counts as cell-based. Conditions: 100 μM acute (no incubation) in presence of Forskolin 1 μM. As for the experimental part: (§1) The human nasal airway epithelial cells JME/CF15 were cultured in 24-well plates to 90% confluence. (1E,6E)-1,7-Bis(3,5-di-tert-butyl-4-hydroxyphenyl)-1,6-heptadiene-3,5-dione was added at 100 μM for 2 hours, at 37° C., 5% CO2. After incubation, chloride channel activity was assayed by measuring the rate of radio labelled iodide (125 l) efflux using liquid handling robots. The compound was tested in quadruplicate. Cells were incubated in physiologic solution containing 1 μM Kl and 1 μCi Na 125 l/ml during 1 h at 37° C. Extra cellular 125 l was removed by 3 washes of cells, and the loss of intracellular 125 l is determined by removing the medium with physiological solution every minute for up to 9 min 6. A cocktail of forskolin (10 μM) plus genistein (30 μM) was added at the third minute to stimulate F508del-CFTR chloride channel activity. Statistics and curves were derived at using Graph Pad Software.
To test the potency to stimulate wt-CFTR channel activity, CHO-CFTR-wt cells were cultured in 24-well plates to 90% confluence. Iodide efflux experiments were carried as described above. (1E,6E)-1,7-Bis(3,5-di-tert-butyl-4-hydroxyphenyl)-1,6-heptadiene-3,5-dione was added in the third minute in the presence or absence of Forskolin (1 μM). The compound was tested in acute (no incubation) at 100 μM in presence of Forskolin 1 μM. […]

Series [3] has as its target T2, F508del-CFTR chloride channel (Homo sapiens, UniProt P13569, DEL508-508).
T2 construct: endogenous in cells; host or cells: JME/CF15 human nasal airway epithelial cells
In words: Radiolabelled iodide efflux, F508del-CFTR chloride channel activity in JME/CF15 cells. In kind it is cell-based. Conditions: 100 μM for 2 hours, stimulated with forskolin 10 μM plus genistein 30 μM. As for the experimental part:
as §1

Series [4] has as its system JME/CF15 cells. In words: Intracellular calcium mobilization (Fluo-4, confocal microscopy) in JME/CF15 cells. In kind it is cell-based, human. To be noted: 100 μM during 2 h, absence of extra cellular calcium. The text has this:
A number of epithelial chloride channels are calcium dependent. Therefore molecules which increase cytosolic calcium release or reduce calcium re-uptake by the intracellular stores may be beneficial to increase chloride secretion via a calcium-regulated chloride signaling pathway. Alternatively, a decrease in the activity calcium dependant proteins playing a vital role in retaining misfolded F508-CFTR in the ER may also seem a promising strategy in cystic fibrosis therapy.
JME/CF15 cells were loaded with 3 μM Fluo-4 acetoxymethyl (AM)ester for 20 min at room temperature in buffer solution containing: (in mM) 130 NaCl, 5.4 KCl, 2.5 CaCl2, 0.8 MgCl2, 5.6 glucose, 10 Hepes, pH 7.4 adjusted with Tris base), rinsed and allowed to equilibrate for 5-10 min. Ca2+ activity was recorded by confocal laser scanning microscopy using Bio-Rad MRC 1024 equipped with 15 mW Ar/Kr gas laser (Hemel Hempstead, UK). Maximal resolution was obtained with Olympus plan apo X60 oil, 1.4 NA, objective lens. Fluorescence signal collection was performed through the control software Lasersharp 3.2 (Bio-Rad). The resolution time was 30 s for the protocol in which cells are incubated 2 h in the presence of (1E,6E)-1,7-Bis(3,5-di-tert-butyl-4-hydroxyphenyl)-1,6-heptadiene-3,5-dione. All the experiments were performed at minimum on two different cell passages. […]

Bounds are passed on as bounds.

T2 sequence (P13569 with tags, fused parts or gaps DEL508-508): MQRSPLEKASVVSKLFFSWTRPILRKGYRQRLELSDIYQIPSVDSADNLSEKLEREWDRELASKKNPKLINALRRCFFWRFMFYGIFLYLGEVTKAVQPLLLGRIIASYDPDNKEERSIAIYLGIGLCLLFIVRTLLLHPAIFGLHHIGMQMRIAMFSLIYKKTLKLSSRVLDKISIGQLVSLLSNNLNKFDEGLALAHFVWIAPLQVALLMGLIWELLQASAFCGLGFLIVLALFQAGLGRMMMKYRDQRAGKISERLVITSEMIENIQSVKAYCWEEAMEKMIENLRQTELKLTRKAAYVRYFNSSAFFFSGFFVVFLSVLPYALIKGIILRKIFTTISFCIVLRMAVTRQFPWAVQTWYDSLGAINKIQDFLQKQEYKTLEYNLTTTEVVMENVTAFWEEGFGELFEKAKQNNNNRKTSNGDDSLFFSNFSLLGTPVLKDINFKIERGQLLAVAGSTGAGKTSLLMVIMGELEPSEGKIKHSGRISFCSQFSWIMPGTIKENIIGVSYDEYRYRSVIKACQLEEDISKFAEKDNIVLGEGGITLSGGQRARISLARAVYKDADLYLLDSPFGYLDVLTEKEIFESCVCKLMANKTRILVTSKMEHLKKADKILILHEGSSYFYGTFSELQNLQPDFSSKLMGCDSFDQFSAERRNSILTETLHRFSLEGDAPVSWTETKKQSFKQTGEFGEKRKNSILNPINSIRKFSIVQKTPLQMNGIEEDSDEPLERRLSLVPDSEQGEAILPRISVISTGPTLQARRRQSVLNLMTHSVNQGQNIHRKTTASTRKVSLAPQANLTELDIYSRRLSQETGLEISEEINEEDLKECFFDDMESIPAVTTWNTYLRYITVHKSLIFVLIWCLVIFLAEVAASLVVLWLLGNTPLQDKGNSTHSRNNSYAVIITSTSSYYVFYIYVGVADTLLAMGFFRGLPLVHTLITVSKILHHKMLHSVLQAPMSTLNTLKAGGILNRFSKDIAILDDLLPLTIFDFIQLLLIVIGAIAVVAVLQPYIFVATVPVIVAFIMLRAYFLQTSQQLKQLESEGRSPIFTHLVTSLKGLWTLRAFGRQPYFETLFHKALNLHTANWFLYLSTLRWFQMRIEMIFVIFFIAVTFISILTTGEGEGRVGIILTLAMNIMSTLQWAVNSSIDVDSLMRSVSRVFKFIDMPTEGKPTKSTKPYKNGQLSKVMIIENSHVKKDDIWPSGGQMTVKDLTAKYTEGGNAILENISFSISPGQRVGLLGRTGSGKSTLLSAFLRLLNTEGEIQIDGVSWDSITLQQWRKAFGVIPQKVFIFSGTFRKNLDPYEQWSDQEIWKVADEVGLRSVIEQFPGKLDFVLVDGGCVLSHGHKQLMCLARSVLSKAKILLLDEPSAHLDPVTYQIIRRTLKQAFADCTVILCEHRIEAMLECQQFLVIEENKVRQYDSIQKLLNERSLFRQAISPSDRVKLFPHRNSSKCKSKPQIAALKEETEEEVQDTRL

For the molecule `COc1cc(/C=C/C(=O)CC(=O)/C=C/c2ccc(O)c(OC)c2)ccc1O` [Curcumin, (1E,6E)-1,7-Bis(4-hydroxy-3-methoxyphenyl)-1,6-heptadiene-3,5-dione, reference compound], in series [1], the CC50 at 2 h is 50.1 ± 1.1 µM and the CC50 at 24 h amounted to 42.7 ± 1 µM.
`CC(C)(C)c1cc(/C=C/C(=O)CC(=O)/C=C/c2cc(C(C)(C)C)c(O)c(C(C)(C)C)c2)cc(C(C)(C)C)c1O` [(1E,6E)-1,7-Bis(3,5-di-tert-butyl-4-hydroxyphenyl)-1,6-heptadiene-3,5-dione] gave a melting point of 192 to 196 °C. In addition, the “wild-type CFTR chloride channel activity” value in series [2] is given as “insignificant wild-type CFTR chloride channel activity”. The “restoration of F508del-CFTR protein at the plasma membrane (iodide efflux)” value in series [3] is “able to restore the F508del-CFTR protein at the plasma membrane of CF cells”. In series [1], the CC50 at 2 h is greater than 100 µM and the CC50 at 24 h is greater than 100 µM. In series [4], the “intracellular mobilization of Ca2+” value is reported as “induced intracellular mobilization of Ca^2+”.
